Values after ≈ are worked out from the molar mass of the structure shown. “Also recorded” adds a separate entry of the source.
Key:
[1] = test system: B. cereus ATCC 11778; experiment: Well diffusion test; type: cell-based; settings: Bacillus cereus, ATCC11778; well 6 mm; gentamicin 10 μg, emodin 13.5 μg, rhein 14.2 μg; 37 °C, 24 h; read-out: Diameters of inhibition zone (mm), including diameter of well
Method: (§1) Eight food-related microorganisms were used to evaluate the antimicrobial properties, including the Gram-positive Staphylococcus aureus ATCC 6538, Staphylococcus aureus ATCC 25923, Staphylococcus epidermidis ATCC 12228, Enterococcus faecalis ATCC 29212, Bacillus cereus ATCC 11778, and the Gram-negative Escherichia coli ATCC 8739, Escherichia coli ATCC 35218, and Proteus mirabilis ATCC 29245. The antibacterial assays were performed by the well diffusion and broth microdilution method (ISO 20776-1) in order to determine MIC.
(§2) Test microorganisms were stored in freezing conditions and activated by cultivation in Nutrient broth at 37 °C for 24 h. Overnight cultures were used to obtain the inoculum by transferring an amount of cells from the broth to a test tube containing 5 mL of demineralized water until a turbidity of 1–2 × 10^8 colony-forming unit (CFU)/mL was achieved, equivalent to 0.5 McFarland standard. Dilutions of the inoculum were cultured on nutrient agar supplemented with 5% sheep blood to verify the absence of contamination and the validity of the inoculum.
(§3) Compounds were investigated by the agar well diffusion method. The plates containing Mueller Hinton agar medium were spread with 0.1 mL of the bacterial inoculum. The wells (6 mm diameter) were filled with 50 μL of the sample. The plates were incubated at 37 °C for 24 h. DMSO was used as a negative control and one standard antibiotic (gentamicin, 10 μg) as a positive control. Microbial inhibition was visually appreciated as the diameter of the inhibition zones surrounding the well and recorded in mm. All tests were run in triplicate for each combination of extract and microbial strain [26].

[2] = test system: E. coli ATCC 35218; experiment: Well diffusion test; type: cell-based; settings: Escherichia coli, ATCC35218; well 6 mm; gentamicin 10 μg, emodin 13.5 μg, rhein 14.2 μg; 37 °C, 24 h; read-out: Diameters of inhibition zone (mm), including diameter of well
Method: as §1, §2, §3

[3] = test system: E. coli ATCC 8739; experiment: Well diffusion test; type: cell-based; settings: Escherichia coli, ATCC8739; well 6 mm; gentamicin 10 μg, emodin 13.5 μg, rhein 14.2 μg; 37 °C, 24 h; read-out: Diameters of inhibition zone (mm), including diameter of well
Method: as §1, §2, §3

[4] = test system: E. faecalis ATCC 29212; experiment: Well diffusion test; type: cell-based; settings: Enterococcus faecalis, ATCC29212; well 6 mm; gentamicin 10 μg, emodin 13.5 μg, rhein 14.2 μg; 37 °C, 24 h; read-out: Diameters of inhibition zone (mm), including diameter of well
Method: as §1, §2, §3

[5] = test system: P. mirabilis ATCC 29245; experiment: Well diffusion test; type: cell-based; settings: Proteus mirabilis, ATCC29245; well 6 mm; gentamicin 10 μg, emodin 13.5 μg, rhein 14.2 μg; 37 °C, 24 h; read-out: Diameters of inhibition zone (mm), including diameter of well
Method: as §1, §2, §3

[6] = test system: S. aureus ATCC 25923; experiment: Well diffusion test; type: cell-based; settings: Staphylococcus aureus, ATCC25923; well 6 mm; gentamicin 10 μg, emodin 13.5 μg, rhein 14.2 μg; 37 °C, 24 h; read-out: Diameters of inhibition zone (mm), including diameter of well
Method: as §1, §2, §3

[7] = test system: S. aureus ATCC 6538; experiment: Well diffusion test; type: cell-based; settings: Staphylococcus aureus, ATCC6538; well 6 mm; gentamicin 10 μg, emodin 13.5 μg, rhein 14.2 μg; 37 °C, 24 h; read-out: Diameters of inhibition zone (mm), including diameter of well
Method: as §1, §2, §3

[8] = test system: S. epidermidis ATCC 12228; experiment: Well diffusion test; type: cell-based; settings: Staphylococcus epidermidis, ATCC12228; well 6 mm; gentamicin 10 μg, emodin 13.5 μg, rhein 14.2 μg; 37 °C, 24 h; read-out: Diameters of inhibition zone (mm), including diameter of well
Method: as §1, §2, §3

[9] = test system: B. cereus ATCC 11778; experiment: Broth microdilution MIC; type: cell-based; settings: Bacillus cereus, ATCC11778; 37 °C, 24 h
Method: (§4) Eight food-related microorganisms were used to evaluate the antimicrobial properties, including the Gram-positive Staphylococcus aureus ATCC 6538, Staphylococcus aureus ATCC 25923, Staphylococcus epidermidis ATCC 12228, Enterococcus faecalis ATCC 29212, Bacillus cereus ATCC 11778, and the Gram-negative Escherichia coli ATCC 8739, Escherichia coli ATCC 35218, and Proteus mirabilis ATCC 29245. The antibacterial assays were performed by the well diffusion and broth microdilution method (ISO 20776-1) in order to determine MIC. Test microorganisms were stored in freezing conditions and activated by cultivation in Nutrient broth at 37 °C for 24 h. […] Dilutions of the inoculum were cultured on nutrient agar supplemented with 5% sheep blood to verify the absence of contamination and the validity of the inoculum. Bacterial strains susceptible to compounds in the well diffusion assay were studied for their MIC values using 96-well microtiter plates. The experiments were conducted using the reference method for testing the in vitro activity of the antimicrobial agents where MIC is the lowest concentration of an antimicrobial agent that, under defined in vitro conditions, prevents the appearance of visible growth of the microorganism after its incubation overnight. A total of 250 μL of the bacterial suspension in sterile demineralized water was added to 11 mL Mueller-Hinton broth (MBH) to a concentration of 5 × 10^7 cells/mL. Compounds to be investigated were dissolved in MBH containing bacterial inoculum (5 × 10^4 CFU/well) to achieve the two-fold serial concentrations ranging between […] [30]. The microplates were covered with an adhesive seal and incubated at 37 °C for 24 h. DMSO combined with MHB was used as the negative control for each bacterial strain. The plates were visually read under normal laboratory lighting using a manual mirror viewer. Two replicates were conducted for each compound and each bacterial strain.

[10] = test system: S. aureus ATCC 25923; experiment: Broth microdilution MIC; type: cell-based; settings: Staphylococcus aureus, ATCC25923; 37 °C, 24 h
Method: as §4

[11] = test system: S. epidermidis ATCC 12228; experiment: Broth microdilution MIC; type: cell-based; settings: Staphylococcus epidermidis, ATCC12228; 37 °C, 24 h
Method: as §4

[12] = target: T1, SrtA (Staphylococcus aureus, UniProt Q2FV99); experiment: Sortase A activity assay (FRET, SensoLyte 520 kit); type: biochemical, S. aureus
T1 construct: purchased Anaspec, San Jose, CA, USA
Method: The inhibitory activity of all of the compounds was determined by quantifying the increase in fluorescence intensity upon a cleavage 5-FAM/QXL® FRET substrate using a SensoLyte® 520 Sortase A Activity Assay Kit (Anaspec, San Jose, CA, USA). According to kit protocol, reactions were performed in a 96-well plate, with each well containing 10 μL test compound solution, 40 μL enzyme solution, and 50 μL sortase substrate solution. All compounds were dissolved in dimethyl sulfoxide (DMSO) and diluted with sterilized distilled water. The final concentration of DMSO was 1%. Each compound diluted in buffer to the tested concentration and was checked for intrinsic fluorescence. According to the kit protocol, we used the enzyme without the test compound as a control, a 1% DMSO control, and a substrate control. We used the kit inhibitor, 4-hydroxymercuribenzoic acid (HMB), as the positive control. Reactions were carried out for 1 h at room temperature and analyzed fluorometrically (SpectraMAX Gemini XS, CA, USA) at Ex/Em = 490 nm/520 nm. All reported values are the means of triplicate assays.

[13] = in vivo; settings: in vivo
Method: (§5) The Daphnia magna test was performed in 4 mL 12-tissue culture wells, using 10 daphnids/well, with each sample being tested in duplicate. […] All experiments were conducted in the dark, in a plant growth chamber (Sanyo MLR-351 H, San Diego, CA, USA) at 25 ± 1 °C [32, 33].
(§6) Statistical analysis of the inhibitory effect on SrtA and the Daphnia magna bioassay was performed using GraphPad Prism version 5.01 software (GraphPad Software, Inc., La Jolla, CA, USA). A student’s t-test (p < 0.05) was applied in order to analyze the results obtained from replicates. […] The inhibition (I %) and lethality percentage (L %) values were calculated and plotted against the logarithm of concentrations and the corresponding curves were calculated using the least squares fit method. […] Whenever the obtained results permitted, the upper and lower limits of the 95% confidence interval (95% CI) and the correlation coefficient (r^2) were calculated.

[14] = test system: Daphnia magna; experiment: in vivo; settings: for Toxicity on Daphnia magna (result in words): in vivo
Method: as §5, §6

[15] = Solubility in water (observation during FRET testing)
[16] = test system: tested bacteria strains; experiment: Preliminary antibacterial screening by well diffusion test; type: cell-based; settings: eight strains
Method: as §1, §2
Compounds were investigated by the agar well diffusion method. The plates containing Mueller Hinton agar medium were spread with 0.1 mL of the bacterial inoculum. […] Microbial inhibition was visually appreciated as the diameter of the inhibition zones surrounding the well and recorded in mm. […]

[17] = target: T1, SrtA; settings: cited from earlier work

T1 sequence (Q2FV99 whole entry): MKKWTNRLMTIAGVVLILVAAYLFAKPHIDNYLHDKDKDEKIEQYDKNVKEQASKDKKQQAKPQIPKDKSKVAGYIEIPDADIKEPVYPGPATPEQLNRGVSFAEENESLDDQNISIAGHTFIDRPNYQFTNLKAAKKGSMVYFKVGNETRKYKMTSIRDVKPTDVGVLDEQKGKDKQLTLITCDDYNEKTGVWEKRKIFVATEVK

Row | SMILES | MIC [9] [µg/mL] | MIC [10] [µg/mL] | MIC [11] [µg/mL] | SrtA inhibition (result in words) [12] | inhibition at 10 µM [12] [%] | LC50 at 24 h [13] [µM] | LC50 at 48 h [13] [µM] | Toxicity on Daphnia magna (result in words) [14] | Solubility in water (result in words) [15] | Antimicrobial effect (result in words) [16] | other results
1 | CNC(C)C1CCC(N)C(OC2C(N)CC(N)C(OC3OCC(C)(O)C(NC)C3O)C2O)O1 (stereo not shown) [Gentamicin, reference compound] | 4 (≈ 8.38 µM) | 2 (≈ 4.19 µM) | 2 (≈ 4.19 µM) |  |  |  |  |  |  |  | zone of inhibition at 10 µg/disc [1]: 24 mm; zone of inhibition at 10 µg/disc [2]: 20 mm; zone of inhibition at 10 µg/disc [3]: 21 mm; zone of inhibition at 10 µg/disc [4]: 12 mm; zone of inhibition at 10 µg/disc [5]: 20 mm; zone of inhibition at 10 µg/disc [6]: 21 mm; zone of inhibition at 10 µg/disc [7]: 17 mm; zone of inhibition at 10 µg/disc [8]: 29 mm
2 | O=C(/C=C/C=C/c1ccc2c(c1)OCO2)N1CCCCC1 [Piperine] |  |  |  | statistically significant SrtA inhibition | 14.9 | 145 | 3.45 | high level of toxicity | low solubility in water; also recorded: low aqueous solubility |  | 
3 | Cc1cc(O)c2c(c1)C(=O)c1cc(O)cc(O)c1C2=O [Emodin] | 16 (≈ 59.2 µM) | 8 (≈ 29.6 µM) | 8 (≈ 29.6 µM) | statistically significant SrtA inhibition |  | 34.7 | 24.2 |  |  | observable antimicrobial effect | inhibition at 100 µM [12]: 10.1%; zone of inhibition at 13.5 µg/disc [1]: 12 mm; zone of inhibition at 13.5 µg/disc [2]: 6 mm; zone of inhibition at 13.5 µg/disc [3]: 6 mm; zone of inhibition at 13.5 µg/disc [4]: 6 mm; zone of inhibition at 13.5 µg/disc [5]: 6 mm; zone of inhibition at 13.5 µg/disc [6]: 20 mm; zone of inhibition at 13.5 µg/disc [7]: 6 mm; zone of inhibition at 13.5 µg/disc [8]: 14 mm
4 | O=C(O)c1cc(O)c2c(c1)C(=O)c1cccc(O)c1C2=O [Rhein] | 32 (≈ 113 µM) | 64 (≈ 225 µM) | 16 (≈ 56.3 µM) | statistically significant SrtA inhibition | 7.01 |  |  |  | low solubility in water | observable antimicrobial effect | zone of inhibition at 14.2 µg/disc [1]: 15 mm; zone of inhibition at 14.2 µg/disc [2]: 6 mm; zone of inhibition at 14.2 µg/disc [3]: 6 mm; zone of inhibition at 14.2 µg/disc [4]: 6 mm; zone of inhibition at 14.2 µg/disc [5]: 6 mm; zone of inhibition at 14.2 µg/disc [6]: 12 mm; zone of inhibition at 14.2 µg/disc [7]: 6 mm; zone of inhibition at 14.2 µg/disc [8]: 30 mm
5 | COc1cc([C@@H]2c3cc4c(cc3[C@H](O)[C@H]3COC(=O)[C@H]23)OCO4)cc(OC)c1OC [Podophyllotoxin] |  |  |  | statistically significant SrtA inhibition |  |  | 6.47 | high level of toxicity | low aqueous solubility |  | inhibition at 50 µM [12]: 26.4%
6 | O=c1c(O)c(-c2ccc(O)c(O)c2)oc2cc(O)cc(O)c12 [Quercetin] |  |  |  | statistically significant SrtA inhibition | 8.55 |  |  |  | low solubility in water; also recorded: very low solubility in water |  | Maximum lethality ([14]; after 48 h, tested 0.5 to 100 μM): ≤ 30%; Inhibition of SrtA enzymatic activity (result in words) [17]: proven to inhibit SrtA enzymatic activity

— PMC5666896, “Molecular Docking and Screening Studies of New Natural Sortase A Inhibitors” (International Journal of Molecular Sciences, 2017)
